From ChEMBL document CHEMBL1201862, “PubChem BioAssay data set” (2004) come the findings set out here.

Structures are written as SMILES.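 Exposure lasted 48 hours, with cells grown in 96-well plates and compounds tested at five concentrations. GI50 marks 50% less growth.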 The source made the active and inactive calls. No stated cut-off is given here; in the data, active = GI50 up to about 1.1 µM and inactive = higher.

What all share (assay): NCI tumour cell line growth inhibition, 48 h
In assay [1] the test system is 786-0.
In assay [2] the test system is BT-549.
Assay [3] relates to CAKI-1.
In assay [4] the test system is CCRF-CEM.
For assay [5], the system named is DU-145.
Assay [6] concerns HCC 2998.
For assay [7], the system named is HCT-116.
Assay [8] concerns HT-29.
Assay [9] has as its system MDA-N.
Assay [10] has as its system NCI-H460.
The subject of assay [11] is SF-295.
For assay [12], the system named is SF-539.
Assay [13] deals with SK-MEL-5.
Assay [14] deals with SNB-19.
Assay [15] has as its system SNB-75.
Assay [16] has as its system U-251.
Assay [17] deals with UACC-257.
The test system of assay [18] is UACC-62.
Assay [19] concerns HCT-15.
The test system of assay [20] is LOX IMVI.

On to `CCNC(=O)Nc1cccc(C)n1`, for which the GI50 in assay [1], in [2], in assay [3], in assay [4], in assay [5] and in [6] was > 100 µM (inactive) in each case. The GI50 in assay [7], in [8], in assay [9], in [10], in assay [11] and in assay [12] was > 100 µM (inactive) in each case. The GI50 is > 100 µM (inactive) in assay [13]; > 100 µM (inactive) in assay [14]; 68.9 µM (inactive) in [15]; > 100 µM (inactive) in assay [16]; > 100 µM (inactive) in [17]; 99.1 µM (inactive) in [18].

Take `COC(=O)[C@H]1[C@H](C(=O)OC)[C@@H](C)c2c(ccc3c2[nH]c2ccccc23)[C@@H]1C`: the GI50 in assay [1] is 21.2 µM (inactive); in assay [2], > 100 µM (inactive); in assay [3] it was 68.4 µM (inactive); in assay [4], 22.4 µM (inactive); in [5] it was 41.5 µM (inactive); in [7], 34.6 µM (inactive). In addition, the GI50 in [19] is more than 100 µM; in assay [8] it was 19.1 µM (inactive); in assay [20], 22.6 µM (inactive); in [9], 90.8 µM (inactive); in assay [10], 36.8 µM (inactive); in assay [11], 18.6 µM (inactive). Besides, the GI50 is > 100 µM (inactive) in assay [12]; > 100 µM (inactive) in assay [13]; 56.4 µM (inactive) in assay [14]; 19.7 µM (inactive) in assay [15]; 62.1 µM (inactive) in assay [16]; 19.4 µM (inactive) in assay [17]. Further, the GI50 in assay [18] is > 100 µM (inactive).

`COc1nc(C)nc2sc3c(c12)CCCC3`: the GI50 in [1], in assay [2], in assay [3], in assay [5], in assay [6] and in [7] was > 100 µM (inactive) throughout. The GI50 was more than 100 µM in assay [19]; > 100 µM (inactive) in assay [8]; > 100 µM (inactive) in assay [20]; > 100 µM (inactive) in [9]; > 100 µM (inactive) in assay [10]; > 100 µM (inactive) in [11]. For the same compound, the GI50 is > 100 µM (inactive) in assay [13]; > 100 µM (inactive) in [14]; 93.3 µM (inactive) in assay [15]; > 100 µM (inactive) in [16]; > 100 µM (inactive) in [17]; > 100 µM (inactive) in assay [18].

In the case of `CCCCCc1cc2cc3c(c(O)c2c(=O)[nH]1)C1(CC3)C(=O)c2c(O)c3c(c(O)c2C1=O)C(=O)C(OC)=CC3=O` (stereo not given), the GI50 in [1] is 0.7 µM (active); in assay [2], 1.08 µM (active); in assay [3], 0.259 µM (active); in assay [4], 0.0859 µM (active); in assay [5] it was 1.05 µM (active); in assay [6] it was 1.05 µM (active). Also, the GI50 in assay [7] was 0.433 µM (active); in assay [19], 0.388 µM; in assay [8], 0.718 µM (active); in assay [20], 0.662 µM (active); in assay [9] it was 1.3 µM (inactive); in assay [10], 0.863 µM (active). In addition, the GI50 in [11] is 3.01 µM (inactive); in assay [13] it was 0.64 µM (active); in [14], 1.08 µM (active); in assay [15], 1.58 µM (inactive); in assay [16], 0.601 µM (active); in assay [17], 0.444 µM (active). Also, in [18], the GI50 is 1.24 µM (inactive).

Take `C=CCOC(=O)CC[N+]1=CCC(c2ccccc2)(c2ccccc2)O1`: the GI50 in [1], in assay [2], in assay [3], in assay [5], in assay [6] and in assay [7] was > 100 µM (inactive) in each case. The GI50 is more than 100 µM in assay [19]; > 100 µM (inactive) in [8]; > 100 µM (inactive) in assay [9]; > 100 µM (inactive) in [10]; > 100 µM (inactive) in assay [11]; > 100 µM (inactive) in assay [12]. Moreover, the GI50 in [13], in assay [14], in [16], in assay [17] and in assay [18] was > 100 µM (inactive) each time.

Regarding `O=C1c2ccccc2C(=O)N1CCCCNOCCCN1C(=O)c2ccccc2C1=O`, the GI50 in assay [1], in [2], in assay [3], in assay [4], in assay [5] and in assay [6] was > 100 µM (inactive) throughout. The GI50 in assay [7] was > 100 µM (inactive); in assay [19], more than 100 µM; in assay [8] it was > 100 µM (inactive); in [20], > 100 µM (inactive); in [9] it was > 100 µM (inactive); in [10], > 100 µM (inactive). Also, the GI50 in assay [11], in assay [13], in assay [14], in assay [15], in [16] and in assay [17] was > 100 µM (inactive) in each case. Moreover, the GI50 in [18] is > 100 µM (inactive).

With `Cn1ccnc1CCc1ccc(F)cc1F`, the GI50 in [1] is > 100 µM (inactive); in [2], > 100 µM (inactive); in assay [4], > 100 µM (inactive); in assay [5], > 100 µM (inactive); in assay [6], > 100 µM (inactive); in [19], more than 100 µM. For the same compound, the GI50 in assay [8], in assay [20], in [9], in assay [10], in assay [11] and in assay [12] was > 100 µM (inactive) each time. The GI50 in assay [13], in [14], in assay [15], in [16] and in [18] was > 100 µM (inactive) throughout.

In the case of `O=C(/C=C/c1ccccc1)Oc1ccc(C(=O)/C=C/c2ccc(Cl)cc2)cc1`, the GI50 was 31.9 µM (inactive) in assay [1]; 25.8 µM (inactive) in assay [2]; > 100 µM (inactive) in assay [3]; 17.4 µM (inactive) in assay [4]; 59.8 µM (inactive) in assay [5]; 41.3 µM (inactive) in [6]. Besides, the GI50 is 83.4 µM (inactive) in assay [7]; > 100 µM (inactive) in assay [8]; 37.2 µM (inactive) in [9]; 15.8 µM (inactive) in [10]; 82.6 µM (inactive) in assay [11]; 28 µM (inactive) in assay [12]. The GI50 is 83.4 µM (inactive) in assay [13]; 46.1 µM (inactive) in assay [14]; 75.3 µM (inactive) in assay [15]; 20.7 µM (inactive) in assay [16]; > 100 µM (inactive) in [17]; > 100 µM (inactive) in assay [18].
